Test results taken from paper PMC10390520, “Antibody binding of amyloid beta peptide epimers/isomers and ramifications for immunotherapies and drug development” (Scientific Reports, 2023).

Test system: antibodies 4G8, 6E10, mOC98 and mOC23
Test: Immunoprecipitation of Aβ 1–42 peptides with four antibodies, LC-MS/MS detection
Assay type: binding
Conditions: Fig. 3B data, corrected with individual MS/MS calibration curves; 11 pmol Aβ peptide, 13.2 pmol antibody in 300 µL IP lysis/wash buffer; Protein A/G plus agarose; LC-MS/MS 903–886 m/z; triplicate
Description: Antibody binding efficacy was assessed through an immunoprecipitation procedure, followed by reconstitution in borate buffer and analysis via liquid chromatography tandem mass spectrometry (see Methods). […] Note that these antibodies were developed using the WT (all L) Aβ peptide. Further, the MS/MS detection also was optimized using the WT (all L) Aβ peptide. […] The reduced signal intentensities could be attributed to the altered binding between the antibody and the “aberrant” forms of Aβ, differences in the MS/MS of the “aberrant” Aβ or combinations of these two factors. […]
Purified anti-β-Amyloids 17–24 Antibody (4G8) and 1–16 Antibody (6E10) were purchased from BioLegend (San Diego, CA, USA) while mOC-type antibodies recombinant anti-beta amyloid 1–42 mOC98 and mOC23 were purchased from Abcam (Cambridge, UK). Antibody-antigen binding was measured using Pierce Classic IP Kit by Thermo Fisher Scientific (Waltham, MA, USA). […] Elution buffer was evaporated and samples were reconstituted in 20 µL of 0.1 M borate buffered to pH 9.1 and analyzed by LC–MS/MS. […]
HPLC–MS grade acetonitrile was purchased from Sigma-Aldrich and ultrapure water was obtained from a Milli-Q-water system (Millipore, Bedford, MA, USA). […] WT (all L) Aβ 1–42 and aberrant Aβ 1–42 immunoprecipitated standards were quantitated using the MS/MS transition 903–886 m/z. […]

In the case of “WT (all L) Aβ: unmodified wild-type all-L amyloid beta 1–42 peptide, purchased from Genscript”, the “antibody binding affinity (immunoprecipitation extraction) compared to WT (all L) Aβ” value is reported as “same efficacy”.
